In patent US20240390353A1, “METHOD OF TREATMENT WITH TRADIPITANT” (Vanda Pharmaceuticals Inc., priority 2018, published 2024):
“Also recorded” adds a separate entry of the source.

System: otherwise healthy adults reporting regular illicit opioid misuse
Test: Double-blind within-subject crossover inpatient study: subject-rated outcomes of intranasal oxycodone during tradipitant vs placebo maintenance (sample sessions)
Type: in vivo, human
Method: A double-blind, inpatient, approximately 6 week study employing a within-subject crossover design examines the effects of maintenance with tradipitant as compared to placebo on response to oxycodone. Study subjects include otherwise healthy adults reporting regular illicit opioid misuse, and history of intranasal opioid use without physical dependence.
Subjects are administered placebo or tradipitant (85 mg p.o., bid) on study days 3-17 with a washout period on days 18-23, followed by administration of placebo or tradipitant (85 mg p.o., bid) on study days 24-39. In the study, tradipitant/placebo administration is counterbalanced across subjects. On study days 3, […], 24, and 39, subjects participate in challenge sessions (day 1 and steady state) in which they receive 0, 5, 10, or 20 mg intranasal (IN) oxycodone at 1 hr. intervals, after which effect of tradipitant on analgesia in humans is evaluated. On study days 2, 8, 11, 15, 29, 32, and 36, subjects participate in sample sessions in which subjects are administered 0, 15, or 30 mg IN oxycodone, after which effect of tradipitant on subject-rated outcomes is evaluated. Such subject-rated outcomes include responses to questions including “how much do you like the drug,” “does the drug have any good effects,” “do you feel any drug effect,” and “how much do you desire opiates right now?” Further, on study days 9, 12, 16, 30, 33, and 37, subjects participate in choice sessions, in which effect of tradipitant on oxycodone self-administration is evaluated.

[1] = tradipitant 85 mg p.o. bid maintenance, at some opioid drug doses, e.g. 15 mg IN oxycodone, FIGS. 1-3
[2] = 0, 15 or 30 mg IN oxycodone, difference from 0 mg

Structure (SMILES)	desire for opioids (cravings), trough scores ("how much do you desire opiates right now?") (tradipitant 85 mg p.o. bid maintenance compared to placebo maintenance, 0, 15 or 30 mg IN oxycodone, FIG. 4)	perception of how good the effects of the drug were [1]	perception of how much of a drug effect was felt [1]	perception of how much the opioid drug was liked [1]	pleasurable and drug seeking sensations (tradipitant maintenance, at some doses)	effect of oxycodone dose on trough scores for desire for opioids (0, 15 or 30 mg IN oxycodone)	peak ratings of good effects [2]	peak ratings of liking for the drug [2]	peak ratings of overall drug effect [2]
O=C(c1ccccc1Cl)c1cccnc1-c1nnn(Cc2cc(C(F)(F)F)cc(C(F)(F)F)c2)c1-c1ccncc1 [tradipitant]	diminished; also recorded: reduces	decreases	decreases	decreases	decreases	–	–	–	–
COc1ccc2c3c1O[C@H]1C(=O)CC[C@@]4(O)[C@@H](C2)N(C)CC[C@]314 [Oxycodone, oxycodone, reference compound]	–	–	–	–	–	no significant effect	significant and dose-dependent increases	significant and dose-dependent increases	significant and dose-dependent increases
